Experiment [1] has as its system breast cancer cells (MDA-MB-231). Kind of experiment: Cancer cell line growth inhibition, Sulforhodamine B assay, MDA-MB-231. Format: cell-based. Conditions: Homo sapiens, 120 h; Table 2; MDA-MB-231, 5 days, SRB; read-out: Cancer Cell Line GI50 Range MDA-MB-231. As for the experimental part: (§1) Breast cancer cells (MDA-MB-231 and MDA-MB-468), colon cancer cells (HCT116) and ovarian cancer cells (PA-1 and OVCAR-3) were seeded (1000 to 4000 in 80 μl per well depending on the cell growth rate) into 96 well plates 24 hours before compound overlay. Compounds were prepared as 10 mM stock solutions in 100% DMSO which were diluted with DMEM (Dulbecco's Modified Eagle's Medium) cell growth Medium (Invitrogen, Burlington, ON, Canada) containing 10% FBS (Fetal Bovine Serum) to concentrations ranging from 50 nM to 250 μM. Aliquots (20 μl) from each concentration were overlaid to 80 μl of the pre-seeded cells in the 96 well plates to make final concentrations of 10 nM to 50 μM. The cells were cultured for 5 days before the Sulforhodamine B assay (SRB) was performed to determine the compound's cell growth inhibition activity.
(§2) Sulforhodamine B (purchased from Sigma, Oakville, ON, Canada) is a water-soluble dye that binds to the basic amino acids of the cellular proteins. Thus, colorimetric measurement of the bound dye provides an estimate of the total protein mass that is related to the cell number. the cells are fixed in situ by gently aspirating off the culture media and adding 50 μl ice cold 10% Trichloroacetic Acid (TCA) per well and incubate at 4° C. for 30-60 min, The plates are washed with H2O five times and allowed to air dry for 5 min. Addition of 50 μl 0.4% (w/v) SRB solution in 1% (v/v) acetic acid to each well and incubation for 30 min at RT completes the staining reaction. Following staining, plates are washed four times with 1% acetic acid to remove unbound dye and then allowed to air dry for 5 min. The stain is solubilized with 100 μl of 10 mM Tris pH 10.5 per well. Absorbance is read at 570 nm.
(§3) The percentage (%) of relative growth inhibition was calculated by comparing to DMSO treated only cells (100%). GI50's were determined for compounds with cytotoxic activity. The GI50 was calculated using GraphPad PRISM software (GraphPad Software, Inc., San Diego, Calif., USA).
(§4) In Table 2 below, GI50 value ranges for compound examples against breast cancer cell lines (MDA-MB-231), colon cancer cell lines (HCT116) and ovarian cancer cell lines (PA-1) are given.

The target in another experiment is T1, human TTK (Homo sapiens, UniProt P33981).
T1 construct: Active TTK was purchased from Invitrogen as an amino terminal GST fusion of full length human TTK; purchased Invitrogen
T1 sequence (P33981 1-857): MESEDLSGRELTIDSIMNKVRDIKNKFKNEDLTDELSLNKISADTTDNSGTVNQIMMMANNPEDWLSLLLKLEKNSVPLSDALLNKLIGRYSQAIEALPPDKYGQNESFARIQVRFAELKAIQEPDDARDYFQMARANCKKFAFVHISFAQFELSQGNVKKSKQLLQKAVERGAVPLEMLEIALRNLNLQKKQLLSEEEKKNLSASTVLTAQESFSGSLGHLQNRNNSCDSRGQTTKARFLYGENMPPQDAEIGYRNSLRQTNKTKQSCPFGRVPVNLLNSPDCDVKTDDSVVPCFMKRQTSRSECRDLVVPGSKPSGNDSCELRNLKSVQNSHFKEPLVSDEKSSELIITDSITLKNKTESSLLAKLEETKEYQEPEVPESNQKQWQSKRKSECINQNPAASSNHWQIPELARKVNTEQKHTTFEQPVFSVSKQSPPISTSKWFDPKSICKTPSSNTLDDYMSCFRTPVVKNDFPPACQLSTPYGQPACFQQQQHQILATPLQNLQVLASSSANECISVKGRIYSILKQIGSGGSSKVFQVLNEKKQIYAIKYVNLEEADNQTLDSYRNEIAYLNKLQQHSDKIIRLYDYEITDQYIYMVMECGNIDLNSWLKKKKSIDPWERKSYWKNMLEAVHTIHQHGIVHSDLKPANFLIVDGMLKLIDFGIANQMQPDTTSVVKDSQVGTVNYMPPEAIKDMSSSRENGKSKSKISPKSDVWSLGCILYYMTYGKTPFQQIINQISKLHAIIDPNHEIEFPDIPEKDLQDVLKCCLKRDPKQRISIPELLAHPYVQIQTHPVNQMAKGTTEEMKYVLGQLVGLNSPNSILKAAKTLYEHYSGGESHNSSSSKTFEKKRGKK
The experiment is described as follows: TTK inhibition assay (indirect ELISA). Format: biochemical. To be noted: Table 2; 16 μM ATP (asterisk); read-out: TTK IC50 Range. The method in brief: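 Activity detected by indirect ELISA after compounds sat with full-length GST-TTK for 5 min prior to starting the reaction with ATP. IC50 came from a four-parameter logistic curve of % inhibition, calculated against background and uninhibited control wells.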

The test system of experiment [2] is Colon 12 tumor initiating cells. The experiment is described as follows: Tumor-initiating cell growth inhibition, Alamar Blue assay, colon TICs. Format: cell-based. To be noted: 216 h; Table 2; colon TICs, 9 days, Alamar Blue; read-out: Tumor Initiating Cell GI50 Range Colon 12. A digest of the protocol: (§5)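 Colon TICs (4,000/well, non-TC plates) and ovarian TICs (1,000/well, TC plates) kept in serum-free DMEM:F12 with B-27, heparin, bFGF and EGF. Compound added after 24 h at 0.1% DMSO, then 9 days (colon) or 6 days (ovarian) at 37° C. GI50 from Alamar Blue fluorescence (ex 544/em 590) after 4 h.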

Experiment [3] has as its system colon cancer cells (HCT116). Kind of experiment: Cancer cell line growth inhibition, Sulforhodamine B assay, HCT116. The experiment is classed as cell-based. Conditions: Homo sapiens, HCT-116, 120 h, Table 2; HCT116, 5 days, SRB; read-out: Cancer Cell Line GI50 Range HCT116. A digest of the protocol: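 HCT116 cells, 1000–4000 per well, seeded 24 h ahead, then treated 5 days with compound at 10 nM to 50 μM final in DMEM with 10% FBS. Growth measured by sulforhodamine B staining after TCA fixation, A570; GI50 from inhibition relative to DMSO-only cells.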

Experiment [4] deals with ovarian cancer cells (PA-1). The experiment is described as follows: Cancer cell line growth inhibition, Sulforhodamine B assay, PA-1. The experiment is classed as cell-based. Conditions: 120 h; Table 2; PA-1, 5 days, SRB; read-out: Cancer Cell Line GI50 Range PA-1. The method, then:
as §1, §2, §3
In Table 1 below, GI50 value ranges for compound examples against breast cancer cell lines (MDA-MB-468), colon cancer cell lines (HCT116) and ovarian cancer cell lines (PA-1) are given.
as §4

Experiment [5] relates to Ovarian 2393A tumor initiating cells. Kind of experiment: Tumor-initiating cell growth inhibition, Alamar Blue assay, ovarian TICs. Format: cell-based. Conditions: 144 h; Table 2; ovarian TICs, 6 days, Alamar Blue; read-out: Tumor Initiating Cell GI50 Range Ovarian 2393A. A digest of the protocol:
as §5

As to `Cc1cc(-c2cnn3c(NCC4CCOCC4)cc(NC4CCCC4)nc23)ccc1C(=O)NC1CC1` [Example B14, 4-(5-(cyclopentylamino)-7-(((tetrahydro-2H-pyran-4-yl)methyl)amino)pyrazolo[1,5-a]pyrimidin-3-yl)-N-cyclopropyl-2-methylbenzamide], the concentration for 50% growth inhibition (GI50) in experiment [1], in experiment [2], in experiment [3], in experiment [4] and in experiment [5] was not above 100 nM each time. Moreover, the concentration for half-maximal inhibition (IC50) at human TTK is less than 100 nM.

As to `COCCNc1cc(Oc2ccccc2)nc2c(-c3ccc(C(=O)NC4CC4)cc3)cnn12` [Example B2, N-cyclopropyl-4-(7-((2-methoxyethyl)amino)-5-phenoxypyrazolo[1,5-a]pyrimidin-3-yl)benzamide], the concentration for 50% growth inhibition (GI50) in experiment [1] was more than 500 nM; in experiment [2], 100 to 500 nM; in experiment [3], more than 500 nM; in experiment [4] it was 100 to 500 nM; in experiment [5] it was more than 500 nM. Further, the 50% inhibitory concentration (IC50) on human TTK was less than 100 nM.

On to `CCC(CO)Nc1cc(NCC2CCOCC2)n2ncc(-c3ccc(C(=O)NC4CC4)c(C)c3)c2n1` (stereo in doubt) [Example B29, (R)-N-cyclopropyl-4-(5-((1-hydroxybutan-2-yl)amino)-7-(((tetrahydro-2H-pyran-4-yl)methyl)amino)pyrazolo[1,5-a]pyrimidin-3-yl)-2-methylbenzamide], for which the GI50 in experiment [1] is more than 500 nM; in experiment [2], 100 to 500 nM; in experiment [3], 100 to 500 nM; in experiment [4], 100 to 500 nM; in experiment [5] it was more than 500 nM. Besides, on human TTK, the IC50 is less than 100 nM.

Regarding `O=C(NC1CC1)c1ccc(-c2cnn3c(NCC4CCOCC4)cc(Oc4ccccc4)nc23)cc1Cl` [Example B7, 2-chloro-N-cyclopropyl-4-(5-phenoxy-7-(((tetrahydro-2H-pyran-4-yl)methyl)amino)pyrazolo[1,5-a]pyrimidin-3-yl)benzamide], the GI50 in experiment [1], in experiment [2], in experiment [3], in experiment [4] and in experiment [5] was not above 100 nM throughout. In addition, on human TTK, the half-maximal inhibitory concentration (IC50) is less than 100 nM.

For `Cc1cc(-c2cnn3c(NCCC4CCOCC4)cc(Oc4ccccc4)nc23)ccc1C(=O)NC1CC1` [Example B20, N-cyclopropyl-2-methyl-4-(5-phenoxy-7-((2-(tetrahydro-2H-pyran-4-yl)ethyl)amino)pyrazolo[1,5-a]pyrimidin-3-yl)benzamide], the 50% growth inhibitory concentration (GI50) in experiment [1], in experiment [2], in experiment [3], in experiment [4] and in experiment [5] was not above 100 nM each time. The IC50 on human TTK is less than 100 nM.

`COCCNc1cc(Oc2ccccc2)nc2c(-c3ccc(C(=O)NC4CC4)c(C)c3)cnn12` [Example B13, N-cyclopropyl-4-(7-((2-methoxyethyl)amino)-5-phenoxypyrazolo[1,5-a]pyrimidin-3-yl)-2-methylbenzamide]: the GI50 in experiment [1] is not above 100 nM; in experiment [2], not above 100 nM; in experiment [3], not above 100 nM; in experiment [4], not above 100 nM; in experiment [5] it was 100 to 500 nM. Further, at human TTK, the concentration for half-maximal inhibition (IC50) is less than 100 nM.

For `O=C(NC1CC1)c1ccc(-c2cnn3c(NCCN4CCOCC4)cc(Oc4ccccc4)nc23)cc1` [Example B6, N-cyclopropyl-4-(7-((2-morpholinoethyl)amino)-5-phenoxypyrazolo[1,5-a]pyrimidin-3-yl)benzamide], the concentration for 50% growth inhibition (GI50) is 100 to 500 nM in experiment [1]; 100 to 500 nM in experiment [2]; 100 to 500 nM in experiment [3]; not above 100 nM in experiment [4]; 100 to 500 nM in experiment [5]. In addition, the IC50 at human TTK is less than 100 nM.

For `O=C(NC1CC1)c1ccc(-c2cnn3c(NCC4CCOCC4)cc(Oc4ccccc4)nc23)cc1F` [Example B8, N-cyclopropyl-2-fluoro-4-(5-phenoxy-7-(((tetrahydro-2H-pyran-4-yl)methyl)amino)pyrazolo[1,5-a]pyrimidin-3-yl)benzamide], the concentration for 50% growth inhibition (GI50) was 100 to 500 nM in experiment [1]; 100 to 500 nM in experiment [2]; 100 to 500 nM in experiment [3]; not above 100 nM in experiment [4]; 100 to 500 nM in experiment [5]. Moreover, the half-inhibitory concentration (IC50) at human TTK is less than 100 nM.

As to `Cc1cc(-c2cnn3c(NCC4CCOCC4)cc(Oc4cccnc4)nc23)ccc1C(=O)NC1CC1` [Example B9, N-cyclopropyl-2-methyl-4-(5-(pyridin-3-yloxy)-7-(((tetrahydro-2H-pyran-4-yl)methyl)amino)pyrazolo[1,5-a]pyrimidin-3-yl)benzamide], the GI50 in experiment [1], in experiment [2], in experiment [3], in experiment [4] and in experiment [5] was not above 100 nM in each case. Moreover, the 50% inhibitory concentration (IC50) at human TTK is less than 100 nM.

Take `Cc1cc(-c2cnn3c(NCC(C)C)cc(NC4CCOCC4)nc23)ccc1C(=O)NC1CC1` [Example B26, N-cyclopropyl-4-(7-(isobutylamino)-5-((tetrahydro-2H-pyran-4-yl)amino)pyrazolo[1,5-a]pyrimidin-3-yl)-2-methylbenzamide]: the GI50 in experiment [1] was 100 to 500 nM; in experiment [3] it was not above 100 nM; in experiment [4], not above 100 nM. On human TTK, the IC50 was less than 100 nM.

Take `Cc1cc(-c2cnn3c(NCC4CCOCC4)cc(OC4CCCC4)nc23)ccc1C(=O)NC1CC1` [Example B21, 4-(5-(cyclopentyloxy)-7-(((tetrahydro-2H-pyran-4-yl)methyl)amino)pyrazolo[1,5-a]pyrimidin-3-yl)-N-cyclopropyl-2-methylbenzamide]: the values for the GI50 in experiment [1], in experiment [3] and in experiment [4] were 100 to 500 nM, not above 100 nM and not above 100 nM, respectively. In addition, the IC50 at human TTK was less than 100 nM.

The values above are taken from patent publication US9573954B2, “Pyrazolopyrimidine compounds” (University Health Network, priority 2012, dated 2017).
